In patent publication US20240239775A1, “FXR REGULATOR, PREPARATION METHOD THEREFOR, PHARMACEUTICAL COMPOSITION THEREOF AND USE THEREOF” (QINGDAO RUIJI MEDICAL TECHNOLOGY CO., LTD., priority 2021, published 2024):

Each compound was assayed against T1, FXR (Homo sapiens, UniProt Q96RI1) (assay: FXR antagonist screening by TR-FRET (LanthaScreen TR-FRET FXR co-activation assay kit)). Details: Table 1.1, FXR antagonistic activity; TR-FRET with CDCA; geometric means of at least two independent runs.
T1 construct: 5 μL of 20 nM FXR-LBD Complete Coregulator buffer G; purchased ThermoFisher PV4833
T1 sequence (Q96RI1 262-486 limits assumed): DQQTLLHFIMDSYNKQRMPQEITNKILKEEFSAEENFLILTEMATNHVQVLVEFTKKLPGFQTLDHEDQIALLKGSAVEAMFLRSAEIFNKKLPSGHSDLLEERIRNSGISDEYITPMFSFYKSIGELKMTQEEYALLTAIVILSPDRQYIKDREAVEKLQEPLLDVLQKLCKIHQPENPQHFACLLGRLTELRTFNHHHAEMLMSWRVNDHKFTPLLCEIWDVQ
Format: biochemical
Method: FXR activity was evaluated by time-resolved fluorescence resonance energy transfer (TR-FRET) assay, using LanthaScreen™ TR-FRET FXR co-activation assay kit (ThermoFisher, Cat. PV4833). For agonist screening, 10 μL of Complete Coregulator buffer G containing the corresponding concentration of the compound to be tested, 5 μL of 20 nM FXR-LBD Complete Coregulator buffer G, and 5 μL of 2.0 μM Fluorescein-SRC2-2/20 nM Tb-anti-GST antibody Complete Coregulator buffer G were added to each well of a 384-well black plate (Coring) in sequence. […] Three duplicate wells were set up for each compound, with CDCA as the positive compound and DMSO as the solvent control. For antagonist screening, 5 μL of Complete Coregulator buffer G containing the corresponding concentration of the compound to be tested, 5 μL of 20 nM FXR-LBD Complete Coregulator buffer G, 5 μL of 200 μM CDCA FXR-LBD Complete Coregulator buffer G, and 5 μL of 2.0 μM Fluorescein-SRC2-2/20 nM Tb-anti-GST antibody Complete Coregulator buffer G were added to each well of a 384-well black plate (Coring) in sequence and incubated at room temperature for 10 h. Following operations were the same as those for agonist screening
In the case of CCOC(=O)c1oc2ccc(S(=O)(=O)N(CCc3ccccc3)Cc3ccc(-c4ccccc4)cc3)cc2c1C [Example M4-82], the IC50 is reported as 50 to 100 µM. CCOC(=O)c1oc2ccc(S(=O)(=O)N(CCc3ccccc3)Cc3ccccc3N3CCN(C)CC3)cc2c1C [Example M10-98, ethyl 3-methyl-5-(N-(2-(4-methylpiperazin-1-yl)benzyl)-N-phenethylsulfamoyl)benzofuran-2-carboxylate] was tested, and the IC50 was 50 to 100 µM. For CCOC(=O)c1oc2ccc(S(=O)(=O)N(CCc3ccccc3)c3ccc(N4CCN(C(=O)OC(C)(C)C)CC4)cc3)cc2c1C [Example M8-65, ethyl 3-methyl-5-(N-(4-(4-(tert-butoxycarbonyl)piperazin-1-yl)phenyl)-N-phenethylsulfamoyl)benzofuran-2-carboxylate], the IC50 was 50 to 100 µM. CCOC(=O)c1oc2ccc(S(=O)(=O)N(CCc3ccccc3)Cc3ccccc3N3CCN(C(C)=O)CC3)cc2c1C [Example M10-100, ethyl 3-methyl-5-(N-(2-(4-acetylpiperazin-1-yl)benzyl)-N-phenethylsulfamoyl)benzofuran-2-carboxylate] was tested, and the IC50 was 50 to 100 µM. Cc1c(C(=O)O)oc2ccc(S(=O)(=O)N(CCc3ccccc3)Cc3ccc(N4CCN(C)CC4)cc3)cc12 [Example F27-S80, 3-methyl-5-(N-(4-(4-methylpiperazin-1-yl)benzyl)-N-phenethylsulfamoyl)benzofuran-2-carboxylic acid] gave an IC50 of 50 to 100 µM. With CCOC(=O)c1oc2ccc(S(=O)(=O)N(CCc3ccccc3)c3ccccc3N3CCN(C(C)=O)CC3)cc2c1C [Example M10-91, ethyl 3-methyl-5-(N-(2-(4-acetylpiperazin-1-yl)phenyl)-N-phenethylsulfamoyl)benzofuran-2-carboxylate] the IC50 was 50 to 100 µM. In the case of CCOC(=O)c1oc2ccc(S(=O)(=O)N(CCc3ccccc3)Cc3ccc(CC(=O)OC)cc3)cc2c1C [Example M4-41, ethyl 3-methyl-5-(N-(4-(2-methoxy-2-oxoethyl)benzyl)-N-phenethylsulfamoyl)benzofuran-2-carboxylate], the IC50 is reported as 50 to 100 µM. In the case of CCOC(=O)c1oc2ccc(S(=O)(=O)N(CCc3ccccc3)Cc3ccccc3N3CCN(Cc4ccccc4)CC3)cc2c1C [Example M10-104, ethyl 3-methyl-5-(N-(2-(4-benzylpiperazin-1-yl)benzyl)-N-phenethylsulfamoyl)benzofuran-2-carboxylate], the IC50 is reported as 50 to 100 µM. Work on CCOC(=O)c1oc2ccc(S(=O)(=O)N(CCc3ccccc3)Cc3ccc(C(C)C)cc3)cc2c1C [Example M4-36, ethyl 3-methyl-5-(N-(4-isopropylbenzyl)-N-phenethylsulfamoyl)benzofuran-2-carboxylate] yielded an IC50 of 50 to 100 µM. With CCOC(=O)c1oc2ccc(S(=O)(=O)N(CCc3ccccc3)Cc3ccc(N4CCOCC4)cc3)cc2c1C [Example M8-79, ethyl 3-methyl-5-(N-(4-morpholinobenzyl)-N-phenethylsulfamoyl)benzofuran-2-carboxylate] the IC50 was 50 to 100 µM.

Same assay, conditions: Table 1.2, FXR antagonistic activity; TR-FRET with CDCA; geometric means of at least two independent runs
Cc1c(C(=O)O)sc2ccc(S(=O)(=O)N(CCc3ccc(C#N)cc3)c3ccccc3N3CCN(C(=O)c4sccc4Br)CC3)cc12 [Example F27-S169] gave an IC50 of 0.1 to 10 µM. Cc1c(C(=O)O)oc2ccc(S(=O)(=O)N(CCc3ccccc3)c3ccccc3N3C4CCC3CN(C(=O)c3sccc3Br)C4)cc12 [Example F27-S155, 5-(N-(2-(3-(3-bromothiophene-2-formyl)-3,8-diazepine[3.2.1]cyclooctan-8-yl)phenyl)-N-phenethylsulfamoyl)3-methylbenzofuran-2-carboxylic acid] gave an IC50 of 0.1 to 10 µM. In the case of CCOC(=O)c1oc2ccc(S(=O)(=O)N(CCc3ccccc3)c3ccccc3N3CCN(C(=O)c4ccc(C)s4)CC3)cc2c1C [Example M10-139, Ethyl 5-(N-(2-(4-(5-methylthiophene-2-formyl)piperazin-1-yl)phenyl)-N-phenethylsulfamoyl)3-methylbenzofuran-2-carboxylate], the IC50 is reported as 50 to 100 µM. CCOC(=O)c1oc2ccc(S(=O)(=O)N(CCc3ccccc3)c3ccccc3N3CCN(C(=O)c4ccc(C#N)cc4)CC3)cc2c1C [Example M10-111] was tested, and the IC50 was 50 to 100 µM. With CCOC(=O)c1oc2ccc(S(=O)(=O)N(CCc3ccccc3)c3ccccc3N3CCN(C(=O)c4ccc(F)cc4)CC3)cc2c1C [Example M10-112, Ethyl 5-(N-(2-(4-(4-fluorobenzoyl)piperazin-1-yl)phenyl)-N-phenethylsulfamoyl)-3-methylbenzofuran-2-carboxylate] the IC50 was 50 to 100 µM. Compound CCOC(=O)c1oc2ccc(S(=O)(=O)N(CCc3ccccc3)c3ccccc3N3CCN(C(=O)c4cc(C)ccc4C)CC3)cc2c1C [Example M10-137, Ethyl 5-(N-(2-(4-(2,5-Dimethylbenzoyl)piperazin-1-yl)phenyl)-N-phenethylsulfamoyl)3-methylbenzofuran-2-carboxylate] has an IC50 of 50 to 100 µM. Cc1c(C(N)=O)oc2ccc(S(=O)(=O)N(CCc3ccccc3)c3ccccc3N3CCN(C(=O)c4sccc4Br)CC3)cc12 [Example F27-S178, 5-(N-(2-(4-(3-bromothiophene-2-formyl)piperazin-1-yl)phenyl)-N-phenethylsulfamoyl)3-methylbenzofuran-2-carboxamide] gave an IC50 of 0.1 to 10 µM. Cc1c(C(=O)O)sc2ccc(S(=O)(=O)N(CCc3ccccc3)c3ccccc3N3CCN(C(=O)c4sccc4Br)CC3)cc12 [Example F27-S158, 5-(N-(2-(4-(3-bromothiophene-2-carbonyl)piperazin-1-yl)phenyl)-N-phenethylsulfamoyl)-3-toluothiophene-2-carboxylic acid] was tested, and the IC50 was 0.1 to 10 µM. With Cc1cccc(C(=O)N2CCN(c3ccccc3N(CCc3ccccc3)S(=O)(=O)c3ccc4oc(C(=O)O)c(C)c4c3)CC2)c1 [Example F27-S108, 3-methyl-5-(N-(2-(4-(3-methylbenzoyl)piperazin-1-yl)phenyl)-N-phenethylsulfamoyl)benzofuran-2-carboxylic acid] the IC50 was 0.1 to 10 µM. For CCOC(=O)c1oc2ccc(S(=O)(=O)N(CCc3ccccc3)c3ccccc3N3CCN(C(=O)C4CCCS4)CC3)cc2c1C (stereo not shown) [Example M10-143, Ethyl 5-(N-(2-(4-(tetrahydrothiophene-2-formyl)piperazin-1-yl)phenyl)-N-phenethylsulfamoyl)3-methylbenzofuran-2-carboxylate], the IC50 was 50 to 100 µM. Cc1c(C(=O)O)oc2ccc(S(=O)(=O)N(CCc3ccccc3)c3ccccc3N3CCN(C(=O)c4cccs4)CC3)cc12 [Example F27-S118, 3-methyl-5-(N-phenethyl-N-(2-(4-(thiophene-2-carbonyl)piperazin-1-yl)phenyl)sulfamoyl)benzofuran-2-carboxylic acid] gave an IC50 of 0.1 to 10 µM. CCOC(=O)c1oc2ccc(S(=O)(=O)N(CCc3ccccc3)c3ccccc3N3CCN(C(=O)c4ccccc4Cc4ccccc4)CC3)cc2c1C [Example M10-134, Ethyl 5-(N-(2-(4-(2-benzylbenzoyl)piperazin-1-yl)phenyl)-N-phenethylsulfamoyl)3-methylbenzofuran-2-carboxylate] gave an IC50 of 50 to 100 µM. Compound Cc1c(C(=O)O)oc2ccc(S(=O)(=O)N(CCc3ccccc3)c3ccccc3N3CCN(C(=O)c4ccccn4)CC3)cc12 [Example F27-S117, 3-methyl-5-(N-phenethyl-N-(2-(4-pyridinecarbonylpiperazin-1-yl)phenyl)sulfamoyl)benzofuran-2-carboxylic acid] has an IC50 of 0.1 to 10 µM. Work on CCOC(=O)c1cc2cc(S(=O)(=O)N(CCc3ccccc3)c3ccccc3N3CCN(C(=O)c4sccc4Br)CC3)ccc2s1 [Example M10-159, Ethyl 5-(N-(2-(4-(3-bromothiophene-2-carbonyl)piperazin-1-yl)phenyl)-N-phenethylsulfamoyl)benzo[b]thiophene-2-carboxylate] yielded an IC50 of 50 to 100 µM. Cc1c(C(=O)O)oc2ccc(S(=O)(=O)N(CCc3ccccc3)c3ccccc3N3CCN(C(=O)c4sccc4Br)CC3)cc12 [Example F27-S125, 5-(N-(2-(4-(3-bromothiophene-2-carbonyl)piperazin-1-yl)phenyl)-N-phenethylsulfamoyl)-3-methyl benzofuran-2-carboxylic acid] showed an IC50 of 0.1 to 10 µM. Cc1c(C(=O)O)oc2ccc(S(=O)(=O)N(CCc3ccccc3)c3ccccc3N3CCC4(CCN(C(=O)c5sccc5Br)C4)CC3)cc12 [Example F27-S148] was tested, and the IC50 was 0.1 to 10 µM. In the case of Cc1c(C(=O)O)oc2ccc(S(=O)(=O)N(CCc3ccccc3)c3ccccc3N3CCN(C(=O)c4ccco4)CC3)cc12 [Example F27-S121, 5-(N-(2-(4-(furan-2-carbonyl)piperazin-1-yl)phenyl)-N-phenethylsulfamoyl)-3-methylbenzofuran-2-carboxylic acid], the IC50 is reported as 0.1 to 10 µM. In the case of CCOC(=O)c1oc2ccc(S(=O)(=O)N(CCc3ccccc3)c3ccccc3N3CCN(C(=O)c4ccccc4C)CC3)cc2c1C [Example M10-107, Ethyl 3-methyl-5-(N-(2-(4-(2-methylbenzoyl)piperazin-1-yl)phenyl)-N-phenethylsulfamoyl)benzofuran-2-carboxylate], the IC50 is reported as 50 to 100 µM.
